Reference: PubChem BioAssay (NCI)
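Protocol summary: plate cells (96-well), add compound at 5 concentrations, incubate 48 h, interpolate endpoints linearly. TGI: concentration producing complete growth inhibition.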

Key:
Experiment in all cases: NCI-60 cell line screen, 48 h
A498 renal = tested on: A498 renal
BT-549 breast = tested on: BT-549 breast
CAKI-1 renal = tested on: CAKI-1 renal
CCRF-CEM leukemia = tested on: CCRF-CEM leukemia
COLO 205 colon = tested on: COLO 205 colon
DU-145 prostate = tested on: DU-145 prostate
HCC-2998 colon = tested on: HCC-2998 colon
HCT-116 colon = tested on: HCT-116 colon
HCT-15 colon = tested on: HCT-15 colon
HL-60(TB) leukemia = tested on: HL-60(TB) leukemia
HOP-62 NSCLC = tested on: HOP-62 NSCLC
HOP-92 NSCLC = tested on: HOP-92 NSCLC
HS 578T breast = tested on: HS 578T breast
HT29 colon = tested on: HT29 colon
K-562 leukemia = tested on: K-562 leukemia
KM12 colon = tested on: KM12 colon
M14 melanoma = tested on: M14 melanoma
MALME-3M melanoma = tested on: MALME-3M melanoma
MCF7 breast = tested on: MCF7 breast
MDA-MB-231 breast = tested on: MDA-MB-231 breast
MDA-MB-435 = tested on: MDA-MB-435
MDA-N = tested on: MDA-N
MOLT-4 leukemia = tested on: MOLT-4 leukemia
NCI-H23 lung = tested on: NCI-H23 lung
NCI-H522 lung = tested on: NCI-H522 lung
NCI/ADR-RES ovarian = tested on: NCI/ADR-RES ovarian
OVCAR-3 ovarian = tested on: OVCAR-3 ovarian
OVCAR-5 ovarian = tested on: OVCAR-5 ovarian
OVCAR-8 ovarian = tested on: OVCAR-8 ovarian
PC-3 prostate = tested on: PC-3 prostate
RPMI-8226 leukemia = tested on: RPMI-8226 leukemia
RXF 393 renal = tested on: RXF 393 renal
SF-295 CNS = tested on: SF-295 CNS
SK-MEL-2 melanoma = tested on: SK-MEL-2 melanoma
SK-MEL-28 melanoma = tested on: SK-MEL-28 melanoma
SK-MEL-5 melanoma = tested on: SK-MEL-5 melanoma
SK-OV-3 ovarian = tested on: SK-OV-3 ovarian
SNB-19 CNS = tested on: SNB-19 CNS
SNB-75 CNS = tested on: SNB-75 CNS
SR leukemia = tested on: SR leukemia
T-47D breast = tested on: T-47D breast
U251 CNS = tested on: U251 CNS
UACC-62 melanoma = tested on: UACC-62 melanoma
UO-31 renal = tested on: UO-31 renal

SMILES: Cc1ccc([N+](=O)[O-])cc1N=NC(=O)NNc1cc([N+](=O)[O-])ccc1C
- TGI (A498 renal): 84.4 µM
- TGI (BT-549 breast): 52.1 µM
- TGI (CAKI-1 renal): 66.8 µM
- TGI (CCRF-CEM leukemia): 40.2 µM
- TGI (COLO 205 colon): > 100 µM
- TGI (DU-145 prostate): > 100 µM
- TGI (HCC-2998 colon): 58 µM
- TGI (HCT-116 colon): 36.8 µM
- TGI (HCT-15 colon): 74.3 µM
- TGI (HL-60(TB) leukemia): > 100 µM
- TGI (HOP-62 NSCLC): > 100 µM
- TGI (HOP-92 NSCLC): > 100 µM
- TGI (HS 578T breast): 55.6 µM
- TGI (HT29 colon): 45 µM
- TGI (K-562 leukemia): > 100 µM
- TGI (KM12 colon): 49.3 µM
- TGI (M14 melanoma): 53.5 µM
- TGI (MALME-3M melanoma): > 100 µM
- TGI (MCF7 breast): 67.3 µM
- TGI (MDA-MB-231 breast): 47.8 µM
- TGI (MDA-MB-435): 53 µM
- TGI (MDA-N): 82.8 µM
- TGI (MOLT-4 leukemia): 41 µM
- TGI (NCI-H23 lung): > 100 µM
- TGI (NCI-H522 lung): 29.7 µM
- TGI (NCI/ADR-RES ovarian): > 100 µM
- TGI (OVCAR-3 ovarian): 39.9 µM
- TGI (OVCAR-5 ovarian): > 100 µM
- TGI (OVCAR-8 ovarian): 70 µM
- TGI (PC-3 prostate): > 100 µM
- TGI (RPMI-8226 leukemia): > 100 µM
- TGI (RXF 393 renal): 66.6 µM
- TGI (SF-295 CNS): 40.9 µM
- TGI (SK-MEL-2 melanoma): > 100 µM
- TGI (SK-MEL-28 melanoma): 87.5 µM
- TGI (SK-MEL-5 melanoma): 34.9 µM
- TGI (SK-OV-3 ovarian): 36 µM
- TGI (SNB-19 CNS): > 100 µM
- TGI (SNB-75 CNS): 66.2 µM
- TGI (SR leukemia): > 100 µM
- TGI (T-47D breast): > 100 µM
- TGI (U251 CNS): 97.6 µM
- TGI (UACC-62 melanoma): 33.2 µM
- TGI (UO-31 renal): 78.9 µM
